# Measured values taken from the supplement of paper PMC10307832.
# Experiments:
# Experiment in all cases: relative viability (nuclei count vs DMSO), 5 days (fraction); higher = more cells survive
# Linsitinib + Trametinib = compound: C[C@]1(O)C[C@@H](c2nc(-c3ccc4ccc(-c5ccccc5)nc4c3)c3c(N)nccn32)C1 [Linsitinib] + CC(=O)Nc1cccc(-n2c(=O)n(C3CC3)c(=O)c3c(Nc4ccc(I)cc4F)n(C)c(=O)c(C)c32)c1 [Trametinib] (partner 0.02 µM)
# Method in brief: (§1)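 Cells from lung cancer lines were seeded into 1536-well plates and, one day later, dosed by pin tool. Treatments were either a single drug or a fixed dose of an anchor drug with five library-drug doses (not always all listed) in √10 steps. After 5 days, nuclei were stained in a one-step fixation (final 0.05% Triton X-100, 1% formaldehyde, 1 ug/ml Hoechst) and counted on 4× images, and relative viability is the treated-to-vehicle nuclei ratio, as the median of duplicate plates.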
# Linsitinib + Olaparib = compound: C[C@]1(O)C[C@@H](c2nc(-c3ccc4ccc(-c5ccccc5)nc4c3)c3c(N)nccn32)C1 [Linsitinib] + O=C(c1cc(Cc2n[nH]c(=O)c3ccccc23)ccc1F)N1CCN(C(=O)C2CC2)CC1 [Olaparib] (partner 8 µM)
# Method in brief: as §1
# Ispinesib + Decitabine = compound: Cc1ccc(C(=O)N(CCCN)[C@@H](c2nc3cc(Cl)ccc3c(=O)n2Cc2ccccc2)C(C)C)cc1 [Ispinesib] + Nc1ncn([C@H]2C[C@H](O)[C@@H](CO)O2)c(=O)n1 [Decitabine] (partner 2 µM)
# Method in brief: as §1
# Linsitinib + Navitoclax = compound: C[C@]1(O)C[C@@H](c2nc(-c3ccc4ccc(-c5ccccc5)nc4c3)c3c(N)nccn32)C1 [Linsitinib] + CC1(C)CCC(c2ccc(Cl)cc2)=C(CN2CCN(c3ccc(C(=O)NS(=O)(=O)c4ccc(N[C@H](CCN5CCOCC5)CSc5ccccc5)c(S(=O)(=O)C(F)(F)F)c4)cc3)CC2)C1 [Navitoclax] (partner 0.5 µM)
# Method in brief: as §1
cell line,measurement,setting,value
NCI-H661,relative viability,Linsitinib + Trametinib; first compound 0.01 µM,0.657
same,relative viability,Linsitinib + Trametinib; first compound 0.03162 µM,0.616
same,relative viability,Linsitinib + Trametinib; first compound 0.1 µM,0.533
same,relative viability,Linsitinib + Trametinib; first compound 0.3162 µM,0.598
same,relative viability,Linsitinib + Trametinib; first compound 1 µM,0.548
same,relative viability,Linsitinib + Olaparib; first compound 0.01 µM,0.665
same,relative viability,Linsitinib + Olaparib; first compound 0.03162 µM,0.666
same,relative viability,Linsitinib + Olaparib; first compound 0.1 µM,0.751
same,relative viability,Linsitinib + Olaparib; first compound 0.3162 µM,0.749
same,relative viability,Linsitinib + Olaparib; first compound 1 µM,0.744
same,relative viability,Ispinesib + Decitabine; first compound 0.001 µM,0.614
same,relative viability,Ispinesib + Decitabine; first compound 0.003162 µM,0.567
same,relative viability,Ispinesib + Decitabine; first compound 0.01 µM,0.511
same,relative viability,Ispinesib + Decitabine; first compound 0.03162 µM,0.264
same,relative viability,Ispinesib + Decitabine; first compound 0.1 µM,0.231
NCI-H1944,relative viability,Linsitinib + Trametinib; first compound 0.01 µM,0.395
same,relative viability,Linsitinib + Trametinib; first compound 0.03162 µM,0.465
same,relative viability,Linsitinib + Trametinib; first compound 0.1 µM,0.381
same,relative viability,Linsitinib + Trametinib; first compound 0.3162 µM,0.356
same,relative viability,Linsitinib + Trametinib; first compound 1 µM,0.346
same,relative viability,Linsitinib + Navitoclax; first compound 0.01 µM,1.02
same,relative viability,Linsitinib + Navitoclax; first compound 0.03162 µM,1.1
same,relative viability,Linsitinib + Navitoclax; first compound 0.1 µM,1.04
same,relative viability,Linsitinib + Navitoclax; first compound 0.3162 µM,0.93
same,relative viability,Linsitinib + Navitoclax; first compound 1 µM,0.917
same,relative viability,Linsitinib + Olaparib; first compound 0.01 µM,0.437
same,relative viability,Linsitinib + Olaparib; first compound 0.03162 µM,0.521
same,relative viability,Linsitinib + Olaparib; first compound 0.1 µM,0.4
same,relative viability,Linsitinib + Olaparib; first compound 0.3162 µM,0.333
same,relative viability,Linsitinib + Olaparib; first compound 1 µM,0.382
same,relative viability,Ispinesib + Decitabine; first compound 0.001 µM,0.416
same,relative viability,Ispinesib + Decitabine; first compound 0.003162 µM,0.412
same,relative viability,Ispinesib + Decitabine; first compound 0.01 µM,0.467
same,relative viability,Ispinesib + Decitabine; first compound 0.03162 µM,0.417
same,relative viability,Ispinesib + Decitabine; first compound 0.1 µM,0.443
NCI-H23,relative viability,Linsitinib + Trametinib; first compound 0.01 µM,0.49
same,relative viability,Linsitinib + Trametinib; first compound 0.03162 µM,0.371
same,relative viability,Linsitinib + Trametinib; first compound 0.1 µM,0.337
same,relative viability,Linsitinib + Trametinib; first compound 0.3162 µM,0.244
same,relative viability,Linsitinib + Trametinib; first compound 1 µM,0.256
same,relative viability,Linsitinib + Navitoclax; first compound 0.01 µM,0.811
same,relative viability,Linsitinib + Navitoclax; first compound 0.03162 µM,0.854
same,relative viability,Linsitinib + Navitoclax; first compound 0.1 µM,0.761
same,relative viability,Linsitinib + Navitoclax; first compound 0.3162 µM,0.581
same,relative viability,Linsitinib + Navitoclax; first compound 1 µM,0.652
same,relative viability,Linsitinib + Olaparib; first compound 0.01 µM,0.33
same,relative viability,Linsitinib + Olaparib; first compound 0.03162 µM,0.317
same,relative viability,Linsitinib + Olaparib; first compound 0.1 µM,0.29
same,relative viability,Linsitinib + Olaparib; first compound 0.3162 µM,0.218
same,relative viability,Linsitinib + Olaparib; first compound 1 µM,0.182
same,relative viability,Ispinesib + Decitabine; first compound 0.001 µM,0.27
same,relative viability,Ispinesib + Decitabine; first compound 0.003162 µM,0.326
same,relative viability,Ispinesib + Decitabine; first compound 0.01 µM,0.304
same,relative viability,Ispinesib + Decitabine; first compound 0.03162 µM,0.309
same,relative viability,Ispinesib + Decitabine; first compound 0.1 µM,0.213
SW 900,relative viability,Linsitinib + Trametinib; first compound 0.01 µM,0.741
same,relative viability,Linsitinib + Trametinib; first compound 0.03162 µM,0.986
same,relative viability,Linsitinib + Trametinib; first compound 0.1 µM,0.762
same,relative viability,Linsitinib + Trametinib; first compound 0.3162 µM,0.72
same,relative viability,Linsitinib + Trametinib; first compound 1 µM,0.674
same,relative viability,Linsitinib + Olaparib; first compound 0.01 µM,0.685
same,relative viability,Linsitinib + Olaparib; first compound 0.03162 µM,0.872
same,relative viability,Linsitinib + Olaparib; first compound 0.1 µM,0.821
same,relative viability,Linsitinib + Olaparib; first compound 0.3162 µM,0.793
same,relative viability,Linsitinib + Olaparib; first compound 1 µM,0.667
same,relative viability,Ispinesib + Decitabine; first compound 0.001 µM,0.388
same,relative viability,Ispinesib + Decitabine; first compound 0.003162 µM,0.344
same,relative viability,Ispinesib + Decitabine; first compound 0.01 µM,0.43
same,relative viability,Ispinesib + Decitabine; first compound 0.03162 µM,0.396
same,relative viability,Ispinesib + Decitabine; first compound 0.1 µM,0.311
NCI-H2342,relative viability,Linsitinib + Trametinib; first compound 0.01 µM,0.788
same,relative viability,Linsitinib + Trametinib; first compound 0.03162 µM,0.886
same,relative viability,Linsitinib + Trametinib; first compound 0.1 µM,0.791
same,relative viability,Linsitinib + Trametinib; first compound 0.3162 µM,0.777
same,relative viability,Linsitinib + Trametinib; first compound 1 µM,0.729
same,relative viability,Linsitinib + Olaparib; first compound 0.01 µM,0.532
same,relative viability,Linsitinib + Olaparib; first compound 0.03162 µM,0.565
same,relative viability,Linsitinib + Olaparib; first compound 0.1 µM,0.481
same,relative viability,Linsitinib + Olaparib; first compound 0.3162 µM,0.438
same,relative viability,Linsitinib + Olaparib; first compound 1 µM,0.407
same,relative viability,Ispinesib + Decitabine; first compound 0.001 µM,0.821
same,relative viability,Ispinesib + Decitabine; first compound 0.003162 µM,0.756
same,relative viability,Ispinesib + Decitabine; first compound 0.01 µM,0.76
same,relative viability,Ispinesib + Decitabine; first compound 0.03162 µM,0.743
same,relative viability,Ispinesib + Decitabine; first compound 0.1 µM,0.78
HCC-366,relative viability,Linsitinib + Trametinib; first compound 0.01 µM,0.369
same,relative viability,Linsitinib + Trametinib; first compound 0.03162 µM,0.381
same,relative viability,Linsitinib + Trametinib; first compound 0.1 µM,0.402
same,relative viability,Linsitinib + Trametinib; first compound 0.3162 µM,0.317
same,relative viability,Linsitinib + Trametinib; first compound 1 µM,0.202
same,relative viability,Linsitinib + Navitoclax; first compound 0.01 µM,1.04
same,relative viability,Linsitinib + Navitoclax; first compound 0.03162 µM,0.782
same,relative viability,Linsitinib + Navitoclax; first compound 0.1 µM,1.12
same,relative viability,Linsitinib + Navitoclax; first compound 0.3162 µM,0.921
same,relative viability,Linsitinib + Navitoclax; first compound 1 µM,0.996
same,relative viability,Linsitinib + Olaparib; first compound 0.01 µM,0.354
same,relative viability,Linsitinib + Olaparib; first compound 0.03162 µM,0.219
same,relative viability,Linsitinib + Olaparib; first compound 0.1 µM,0.481
same,relative viability,Linsitinib + Olaparib; first compound 0.3162 µM,0.332
same,relative viability,Linsitinib + Olaparib; first compound 1 µM,0.265
same,relative viability,Ispinesib + Decitabine; first compound 0.001 µM,0.377
same,relative viability,Ispinesib + Decitabine; first compound 0.003162 µM,0.426
same,relative viability,Ispinesib + Decitabine; first compound 0.01 µM,0.396
same,relative viability,Ispinesib + Decitabine; first compound 0.03162 µM,0.399
same,relative viability,Ispinesib + Decitabine; first compound 0.1 µM,0.0716
EBC-1,relative viability,Linsitinib + Navitoclax; first compound 0.01 µM,0.424
same,relative viability,Linsitinib + Navitoclax; first compound 0.03162 µM,0.411
same,relative viability,Linsitinib + Navitoclax; first compound 0.1 µM,0.393
same,relative viability,Linsitinib + Navitoclax; first compound 0.3162 µM,0.352
same,relative viability,Linsitinib + Navitoclax; first compound 1 µM,0.251
same,relative viability,Linsitinib + Olaparib; first compound 0.01 µM,0.664
same,relative viability,Linsitinib + Olaparib; first compound 0.03162 µM,0.851
same,relative viability,Linsitinib + Olaparib; first compound 0.1 µM,0.703
same,relative viability,Linsitinib + Olaparib; first compound 0.3162 µM,0.623
same,relative viability,Linsitinib + Olaparib; first compound 1 µM,0.691
ChaGo-K-1,relative viability,Linsitinib + Trametinib; first compound 0.01 µM,0.947
same,relative viability,Linsitinib + Trametinib; first compound 0.03162 µM,0.973
same,relative viability,Linsitinib + Trametinib; first compound 0.1 µM,0.892
same,relative viability,Linsitinib + Trametinib; first compound 1 µM,0.961
same,relative viability,Linsitinib + Navitoclax; first compound 0.01 µM,1.09
same,relative viability,Linsitinib + Navitoclax; first compound 0.03162 µM,0.793
same,relative viability,Linsitinib + Navitoclax; first compound 0.1 µM,0.829
same,relative viability,Linsitinib + Navitoclax; first compound 0.3162 µM,0.377
same,relative viability,Linsitinib + Navitoclax; first compound 1 µM,0.939
same,relative viability,Linsitinib + Olaparib; first compound 0.01 µM,0.426
same,relative viability,Linsitinib + Olaparib; first compound 0.03162 µM,0.404
same,relative viability,Linsitinib + Olaparib; first compound 0.1 µM,0.401
same,relative viability,Linsitinib + Olaparib; first compound 1 µM,0.365
same,relative viability,Ispinesib + Decitabine; first compound 0.001 µM,0.463
same,relative viability,Ispinesib + Decitabine; first compound 0.003162 µM,0.56
same,relative viability,Ispinesib + Decitabine; first compound 0.01 µM,0.494
same,relative viability,Ispinesib + Decitabine; first compound 0.03162 µM,0.574
same,relative viability,Ispinesib + Decitabine; first compound 0.1 µM,0.521
LCLC-97TM1,relative viability,Linsitinib + Trametinib; first compound 0.01 µM,0.215
same,relative viability,Linsitinib + Trametinib; first compound 0.03162 µM,0.174
same,relative viability,Linsitinib + Trametinib; first compound 0.1 µM,0.156
same,relative viability,Linsitinib + Trametinib; first compound 0.3162 µM,0.171
same,relative viability,Linsitinib + Trametinib; first compound 1 µM,0.196
same,relative viability,Linsitinib + Navitoclax; first compound 0.01 µM,0.39
same,relative viability,Linsitinib + Navitoclax; first compound 0.03162 µM,0.396
same,relative viability,Linsitinib + Navitoclax; first compound 0.1 µM,0.552
same,relative viability,Linsitinib + Navitoclax; first compound 0.3162 µM,0.264
same,relative viability,Linsitinib + Navitoclax; first compound 1 µM,0.484
same,relative viability,Linsitinib + Olaparib; first compound 0.01 µM,0.504
same,relative viability,Linsitinib + Olaparib; first compound 0.03162 µM,0.548
same,relative viability,Linsitinib + Olaparib; first compound 0.1 µM,0.353
same,relative viability,Linsitinib + Olaparib; first compound 0.3162 µM,0.257
same,relative viability,Linsitinib + Olaparib; first compound 1 µM,0.437
same,relative viability,Ispinesib + Decitabine; first compound 0.001 µM,0.248
same,relative viability,Ispinesib + Decitabine; first compound 0.003162 µM,0.24
same,relative viability,Ispinesib + Decitabine; first compound 0.01 µM,0.303
same,relative viability,Ispinesib + Decitabine; first compound 0.03162 µM,0.235
same,relative viability,Ispinesib + Decitabine; first compound 0.1 µM,0.19
